Data set [1] concerns the target T1, 5-hydroxytryptamine receptor 1A (Rattus norvegicus) (UniProt P19327).
T1 sequence (whole entry): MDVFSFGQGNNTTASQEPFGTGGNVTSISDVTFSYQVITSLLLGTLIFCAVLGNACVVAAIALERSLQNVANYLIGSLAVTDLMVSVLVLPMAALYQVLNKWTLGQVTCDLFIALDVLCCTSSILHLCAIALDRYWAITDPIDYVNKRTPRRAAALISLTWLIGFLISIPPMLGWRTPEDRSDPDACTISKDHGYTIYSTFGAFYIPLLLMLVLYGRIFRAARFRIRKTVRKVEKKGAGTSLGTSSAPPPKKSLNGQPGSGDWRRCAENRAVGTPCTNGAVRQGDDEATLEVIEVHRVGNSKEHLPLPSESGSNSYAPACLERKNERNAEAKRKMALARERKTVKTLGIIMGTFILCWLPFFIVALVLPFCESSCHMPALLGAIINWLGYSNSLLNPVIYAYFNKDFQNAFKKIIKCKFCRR
The data set is described as follows: Agonist activity at Sprague-Dawley rat hippocampal membrane 5-HT1A receptor assessed as stimulation of [35S]GTPgammaS binding by measuring maximal efficacy measured after 90 mins by scintillation counter analysis relative to control. The format is functional, cell membranes. The conditions noted are these: Hippocampus, filed as agonist. In general terms: GTPγS is a poorly hydrolysed GTP analogue; its binding reports G protein activation.

Data set [2] in a line: Cytotoxicity against human HMEC-1 cells assessed as cell growth inhibition measured after 72 hrs by MTT assay. The format is toxicity, cell-based. On the technique in general: Formazan colour is commonly taken as a measure of viable cells.
The next data set concerns HCT-116. The data set is described as follows: Cytotoxicity against human HCT-116 cells assessed as cell growth inhibition measured after 72 hrs by MTT assay. The format is functional, cell-based. The settings on record: HCT-116, 72 h.
Another data set deals with K562. As to the kind of experiment: Cytotoxicity against human K562 cells assessed as cell growth inhibition measured after 72 hrs by MTT assay. It is filed as functional, cell-based. The settings on record: K562, 72 h.
For another data set, the system named is MDA-MB-231. The data set is described as follows: Cytotoxicity against human MDA-MB-231 cells assessed as cell growth inhibition measured after 72 hrs by MTT assay. It is filed as functional, cell-based. The settings on record: MDA-MB-231, 72 h.
For a further data set, the system named is HepG2. As to the kind of experiment: Cytotoxicity against human HepG2 cells assessed as cell growth inhibition measured after 72 hrs by MTT assay. The format is functional, cell-based. The conditions noted are these: HepG2, 72 h.
For the next data set, the system named is A549. The data set is described as follows: Cytotoxicity against human A549 cells assessed as cell growth inhibition measured after 72 hrs by MTT assay. The format is functional, cell-based. The conditions noted are these: A549, 72 h.

This is an account of results in ChEMBL document CHEMBL5329202, “New aryl-/heteroarylpiperazine derivatives of 1,7-dimethyl-8,9-diphenyl-4-azatricyclo[5.2.1.02,6]dec-8-ene-3,5,10-trione: Synthesis and preliminary studies of biological activities” (Bioorg Med Chem, 2023).

The structures appear in SMILES notation.

As for `CCCN(CCC)C1CCc2cccc(O)c2C1` (configuration not stated), the Emax (commonly the size of the effect at its maximum, as opposed to the concentration needed) in data set [1] was 148%.
Regarding `COc1cccc2c1C(=O)c1c(O)c3c(c(O)c1C2=O)C[C@@](O)(C(=O)CO)C[C@@H]3O[C@H]1C[C@H](N)[C@H](O)[C@H](C)O1` [DOXORUBICIN], in data set [2], the IC50 (commonly the concentration at which inhibition is half-maximal) at 72 h was 500 nM. In addition, the IC50 in the data set with HCT-116 is 960 nM; in the data set with K562 it was 210 nM; in the data set on MDA-MB-231, 120 nM; in the data set on HepG2, 290 nM; in the data set with A549 it was 240 nM.
